# “Also recorded” adds a separate entry of the source. Like-named read-outs stand apart in the source and are kept apart here.
# Columns and labels:
# [1] = tested on: viral glycoproteins (GRFN-1 binding; gp120LAV chip); test: SPR competition of saccharides with GRFN-1 binding; design: species or system HIV-1
# Text: α-D-mannopyranose (Man), L-fucopyranose (Fuc), α-D-galactopyranose (Gal), sialic acid (N-acetyl-neuraminic acid, Neu5Ac), N-acetyl-glucosamine (GlcNAc) and Man3(GlcNAc)2, a core pentasaccharide found in most N-linked oligosaccharides. All of these saccharides were purchased from Sigma-Aldrich (St. Louis, MO).
# [2] = tested on: HIV-1 (BaL); assay type: cell-based; conditions: TZM-bl assay; for EC50: HIV-1 BaL (R5), 24 hr, luciferase activity
# Protocol: The ability of the analogs to inhibit HIV infection was determined with an assay that determines viral infectivity with an LTR-mediated luciferase reporter construct [37]. In brief, TZM-bl reporter cells are HeLa-derived JC53-BL cells that express high levels of CD4, CXCR4, and CCR5. They also contain reporter cassettes for luciferase and β-galactosidase, both driven by the HIV-1 long terminal repeat [38]). 24 hr after these reporter cells were exposed to R5 lab-adapted strains of HIV-1 (BaL) in the presence of peptides, protection was measured as % reduction in luciferase activity (relative light units) compared to cells infected with virus and peptide vehicle alone.
# [3] = tested on: HIV-1; conditions: read-out: average EC50; anti-HIV inhibitory activity; ref [20], [21]; cited from earlier work
# Text: Preventing HIV-1 infection is the primary goal of pre- and post-exposure prophylaxis of HIV. Prophylactic modalities that block HIV-1 entry would be particularly valuable, because latent HIV-1 infections are typically refractory to therapeutic or immunological interventions [1]–[9]. […] Most anti-HIV lectins have been identified in and isolated from natural sources. They include cyanovirin-N [11], [12] and scytovirin [13] from cyanobac ...
# [4] = tested on: CCR5 (HIV-1BAL); test: p24^gag antigen release assay using PBMCs, CCR5 strain; assay type: cell-based; conditions: PBMC based p24^gag antigen release assay
# [5] = tested on: CXCR4 (HIV-1IIIB); test: p24^gag antigen release assay using PBMCs, CXCR4 strain; assay type: cell-based; conditions: PBMC based p24^gag antigen release assay
compound,measurement,setting,value
"CC(=O)N[C@@H]1[C@@H](O)[C@H](O)[C@@H](CO)O[C@H]1O [GlcNAc, N-acetyl-glucosamine]",competition with binding of GRFN-1 to viral glycoproteins (in words),[1]; pH = 7.4,"interacted with all of these sugars, except fucose; also recorded: the most effective competitors"
"CC[C@H](C)[C@@H]1NC(=O)CNC(=O)[C@H](CCCCN)NC(=O)CNC(=O)[C@@H]2CSSC[C@H](NC1=O)C(=O)N[C@@H](CCCNC(=N)N)C(=O)N[C@H]1CSSC[C@H](NC(=O)[C@H](CCCNC(=N)N)NC(=O)[C@@H]3CSSC[C@H](NC(=O)[C@H]([C@@H](C)CC)NC1=O)C(=O)NCC(=O)N[C@@H](CCCNC(=N)N)C(=O)NCC(=O)N[C@@H]([C@@H](C)CC)C(=O)N3)C(=O)N[C@@H]([C@@H](C)CC)C(=O)N2 [RC-101, reference compound]",EC50,[2],3400 nM
"O=C[C@H](O)[C@@H](O)[C@@H](O)[C@H](O)CO [galactose, α-D-galactopyranose]",competition with binding of GRFN-1 to viral glycoproteins (in words),[1]; pH = 7.4,"interacted with all of these sugars, except fucose"
"OC[C@H]1O[C@H](O)[C@@H](O)[C@@H](O)[C@@H]1O [mannose, α-D-mannopyranose]",competition with binding of GRFN-1 to viral glycoproteins (in words),[1]; pH = 7.4,"interacted with all of these sugars, except fucose; also recorded: the most effective competitors"
same,competition with binding of GRFN-1 to viral glycoproteins (in words),"[1]; pH = 7.4, listed as D-Mannose",especially potent inhibitor that could almost completely abrogate binding of GRFN-1 to the viral glycoproteins
"CC(=O)N[C@H]1[C@H]([C@H](O)[C@H](O)CO)OC(O)(C(=O)O)C[C@@H]1O (stereo partly drawn) [sialic acid, N-acetyl-neuraminic acid]",competition with binding of GRFN-1 to viral glycoproteins (in words),[1]; pH = 7.4,"interacted with all of these sugars, except fucose; also recorded: less profound"
"Cha-SC-Chg-R-Chg-RSGSY-Cha-DR-Ch\g-R-Chg-(D)Cys-CONH2 (disulfide) [GRFN-2, otherwise identical peptide with an Asn to Arg substitution]",antiviral activity (in words),"[2]; dose response, Figure 4",considerably less active than GRFN-1
Man3GlcNAc2,competition with binding of GRFN-1 to viral glycoproteins (in words),[1]; pH = 7.4,"interacted with all of these sugars, except fucose"
griffithsin,EC50,[3],0.04 nM
same,antiviral activity (in words),[4],maintained their antiviral activity
same,antiviral activity (in words),[5],maintained their antiviral activity
same,EC50,[2]; griffithsin,0.0196 ± 0.0019 nM
